Test results published in patent US8304422B2, “Compositions and methods for inhibition of the JAK pathway” (Rigel Pharmaceuticals, Inc., priority 2007, dated 2012).

Legend:
[1] = tested on: Ramos B-Cell Line Stimulated with IL-4; assay: Assay for Ramos B-Cell Line Stimulated with IL-4 (CD23 upregulation, FACS; Example 2); assay type: cell-based; conditions: human Ramos B cells, IL-4 50 units/mL for 20-24 hours, anti-CD23-PE
Excerpt: One means of assaying for such inhibition is detection of the effect of the 2,4-pyrimidinediamine compounds on the upregulation of downstream gene products. In the Ramos/IL4 assay, B-cells are stimulated with the cytokine Interleukin-4 (IL-4) leading to the activation of the JAK/Stat pathway through phosphorylation of the JAK family kinases, JAK1 and JAK3, which in turn phosphorylate and activate the transcription factor Stat-6. […] To study the effect of inhibitors (e.g., the 2,4-substituted pyrimindinediamine compounds described herein) on the JAK1 and JAK3 kinases, human Ramos B cells are stimulated with human IL-4. 20 to 24 hours post stimulation, cells are stained for upregulation of CD23 and analyzed using flow cytometry (FACS). […] An exemplary assay of this type is described in greater detail in Example 2.
B-cells stimulated with cytokine Interleukin-4 (IL-4) activate the JAK/Stat pathway through phosphorylation of the JAK family kinases, JAK-1 and JAK-3, which in turn phosphorylate and activate the transcription factor Stat-6. […] To study the effect of inhibitors on the JAK family kinases, human Ramos B cells are stimulated with human IL-4.
The Ramos B-cell line was acquired from ATCC (ATCC Catalog No. CRL-1596). The cells were cultured in RPMI 1640 (Cellgro, MediaTech, Inc., Herndon, Va., Cat No. 10-040-CM) with 10% fetal bovine serum (FBS), heat inactivated (JRH Biosciences, Inc, Lenexa, Kans., Cat No. 12106-500M) according to ATCC propagation protocol. Cells were maintained at a density of 3.5×10^5. The day before the experiment, Ramos B-cells were diluted to 3.5×10^5 cells/mL to ensure that they were in a logarithmic growth phase.
Cells were spun down and suspended in RPMI with 5% serum. 5×10^4 cells were used per point in a 96-well tissue culture plate. Cells were pre-incubated with compound or DMSO (Sigma-Aldrich, St. Louis, Mo., Cat No. D2650) vehicle control for 1 hour in a 37° C. incubator.
Cells were then stimulated with IL-4 (Peprotech Inc., Rocky Hill, N.J., Cat No. 200-04) for a final concentration of 50 units/mL for 20-24 hours. Cells were then spun down and stained with anti-CD23-PE (BD Pharmingen, San Diego, Calif., Cat No. 555711) and analyzed by FACS. Detection was performed using a BD LSR I System Flow Cytometer, purchased from Becton Dickinson Biosciences of San Jose, Calif.

BaF3 V617F cells; UKE-1 = assay: Proliferation Assay (Cell Titer-Glo; Example 7); assay type: cell-based; conditions: proliferation 72 hours, inhibit JAK2 activity, cell line (BaF3 V617F or UKE-1) not stated
Method in brief: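 Proliferation IC50s reflect 72 h compound exposure at 37 °C, read by Cell Titer-Glo luminescence. Compound was serially diluted 3-fold from a 5 mM DMSO stock and added as a 2× solution; BaF3 V617F cells were grown in RPMI/10% FBS, UKE-1 in Iscove's DMEM with FBS, equine serum and hydrocortisone.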

Compound	IC50 [1] [nM]	IC50 (BaF3 V617F cells; UKE-1) [nM]
COc1cc(Nc2ncc(C)c(Nc3ccc4c(c3)C(NS(C)(=O)=O)CC4)n2)cc(OC)c1OC (racemic) [V-1, (+/−)-5-Methyl-N4-[1-(methylsulfonylamino)indan-6-yl]-N2-(3,4,5-trimethoxyphenyl)-2,4-pyrimidinediamine]	401	
Cc1cnc(Nc2ccc3c(c2)nc(C)n3C)nc1Nc1ccc2c(c1)C(NS(C)(=O)=O)CC2 (racemic) [VIII-3, (+/−)-N2-(1,2-Dimethylbenzimidazol-5-yl)-N4-[1-(methylsulfonylamino)indan-6-yl]-5-methyl-2,4-pyrimidinediamine]	717	
C#CCNS(=O)(=O)c1cccc(Nc2nc(Nc3cc(OC)c(OC)c(OC)c3)ncc2F)c1 [I-1, 5-Fluoro-N4-[3-(prop-2-ynylaminosulfonyl)phenyl]-N2-(3,4,5-trimethoxyphenyl)-2,4-pyrimidinediamine]	140	
C#CCOc1ccc(Nc2ncc(C)c(Nc3ccc(C)c(S(N)(=O)=O)c3)n2)cc1 [I-2, N4-(3-Aminosulfonyl-4-methylphenyl)-5-methyl-N2-[4-(prop-2-ynyloxy)phenyl]-2,4-pyrimidinediamine]	181	
C#CCOc1ccc(Nc2ncc(C(F)(F)F)c(Nc3ccc(C)c(S(N)(=O)=O)c3)n2)cc1 [I-3, N4-(3-Aminosulfonyl-4-methylphenyl)-N2-[4-(prop-2-ynyloxy)phenyl]-5-trifluoromethyl-2,4-pyrimidinediamine]	153	
C#CCNS(=O)(=O)c1cccc(Nc2nc(Nc3cc(C)c(OC)c(C)c3)ncc2F)c1 [I-4, N2-(3,5-Dimethyl-4-methoxyphenyl)-5-fluoro-N4-[3-(prop-2-ynylaminosulfonyl)phenyl]-2,4-pyrimidinediamine]	95.5	
Cc1cnc(Nc2ccc(C3CCN(C)CC3)cc2)nc1Nc1ccc2c(c1)[C@H](NS(C)(=O)=O)CC2 [V-11, (1R)-5-Methyl-N2-[4-(1-methyl-4-piperidinyl)pheny]-N4-[1-(methylsulfonyl)aminoindan-6-yl]-2,4-pyrimidinediamine]		2160
Cc1cnc(Nc2ccc(-c3cccnc3)cc2)nc1Nc1ccc2c(c1)[C@H](NS(C)(=O)=O)CC2 [V-12, (1R)-5-Methyl-N4-[1-(methylsulfonyl)aminoindan-6-yl]-N2-[4-(3-pyridinyl)phenyl]-2,4-pyrimidinediamine]		668
Cc1cnc(Nc2ccc(N3CCN(C)CC3)cc2)nc1Nc1ccc2c(c1)[C@H](NS(C)(=O)=O)CC2 [V-14, (1R)-5-Methyl-N2-[4-(4-methyl-1-piperazinyl)phenyl]-N4-[1-(methylsulfonyl)aminoindan-6-yl]-2,4-pyrimidinediamine]		2690
CCS(=O)(=O)N1CCc2c(cccc2Nc2nc(Nc3ccc(N4CCN(C)CC4)cc3)ncc2Cl)C1 [VI-1, 5-Chloro-N2-[4-(4-methyl-1-piperazinyl)phenyl]-N4-[1,2,3,4-tetrahydro-2-(ethylsulfonyl)-5-isoquinolinyl]-2,4-pyrimidinediamine]		473
CCS(=O)(=O)N1CCc2c(cccc2Nc2nc(Nc3ccc(N4CCN(C)CC4)nc3)ncc2Cl)C1 [VI-3, 5-Chloro-N2-[6-(4-methyl-1-piperazinyl)-3-pyridinyl]-N4-[1,2,3,4-tetrahydro-2-(ethylsulfonyl)-5-isoquinolinyl]-2,4-pyrimidinediamine]		1270
CCS(=O)(=O)N1CCc2c(cccc2Nc2nc(Nc3cc(C)c(OC)c(C)c3)ncc2Cl)C1 [VI-4, 5-Chloro-N2-(3,5-dimethyl-4-methoxyphenyl)N4-[1,2,3,4-tetrahydro-2-(ethylsulfonyl)-5-isoquinolinyl]-2,4-pyrimidinediamine]		1210
CCS(=O)(=O)N1CCc2c(cccc2Nc2nc(Nc3cc(OC)c(OC)c(OC)c3)ncc2Cl)C1 [VI-5, 5-Chloro-N4-[1,2,3,4-tetrahydro-2-(ethylsulfonyl)-5-isoquinolinyl]-N2-(3,4,5-trimethoxyphenyl)-2,4-pyrimidinediamine]		798
COc1c(C)cc(Nc2ncc(Cl)c(Nc3ccc4c(c3)S(=O)(=O)NCC4)n2)cc1C [VII-1, 5-Chloro-N4-[3,4-dihydro-1,1-dioxide-2H-1,2-benzothiazin-7-yl]-N2-[3,5-dimethyl-4-methoxyphenyl]-2,4-pyrimidinediamine]		229
CN1CCN(c2ccncc2Nc2ncc(Cl)c(Nc3ccc4c(c3)S(=O)(=O)NCC4)n2)CC1 [VII-3, 5-Chloro-N4-[3,4-dihydro-1,1-dioxide-2H-1,2-benzothiazin-7-yl]-N2-[4-(N-methylpiperizin-4-yl)pyridine-3-yl]-2,4-pyrimidinediamine]		1170
Cc1cnc(Nc2cncc(C)c2N2CCN(C)CC2)nc1Nc1ccc2c(c1)S(=O)(=O)NCC2 [VII-6, 5-Methyl-N4-[3,4-dihydro-1,1-dioxide-2H-1,2-benzothiazin-7-yl]-N2-[5-methyl-4-(N-methylpiperizin-4-yl)pyridine-3-yl]-2,4-pyrimidinediamine]		1900
Cc1cnc(Nc2cncc(C)c2N2CCN(C)CC2)nc1Nc1ccc2c(c1)S(=O)(=O)NCC2 [VII-7, 5-Methyl-N4-[3,4-dihydro-1,1-dioxide-2H-1,2-benzothiazin-7-yl]-N2-[5-methyl-4-(N-methylpiperizin-4-yl)pyridine-3-yl]-2,4-pyrimidinediamine]		5390
Cc1cnc(Nc2cc(C)c(C)c(C)c2)nc1Nc1ccc2c(c1)S(=O)(=O)NCC2 [VII-8, 5-Methyl-N4-[3,4-dihydro-1,1-dioxide-2H-1,2-benzothiazin-7-yl]-N2-[3,4,5-trimethylphenyl]-2,4-pyrimidinediamine]		1610
Cc1cc(Nc2ncc(Cl)c(Nc3ccc4c(c3)S(=O)(=O)NCC4)n2)cc(C)c1C [VII-9, 5-Chloro-N4-[3,4-dihydro-1,1-dioxide-2H-1,2-benzothiazin-7-yl]-N2-[3,4,5-trimethylphenyl]-2,4-pyrimidinediamine]		1340
COc1c(C)cc(Nc2ncc(C)c(Nc3ccc4c(c3)S(=O)(=O)NCC4)n2)cc1C [VII-10, 5-Methyl-N4-[3,4-dihydro-1,1-dioxide-2H-1,2-benzothiazin-7-yl]-N2-[3,5-dimethyl-4-methoxyphenyl]-2,4-pyrimidinediamine]		144
COc1c(C)cc(Nc2ncc(C)c(Nc3ccc4c(c3)CCN(S(=O)(=O)C3CC3)C4)n2)cc1C [VIII-9, N4-[(N-cyclopropylsulfonyl)-1,2,3,4-tetrahydroisoquinolin-6-yl]-N2-(3,5-dimethyl-4-methoxy)phenyl-5-methyl-2,4-pyrimidinediamine]		179
CCS(=O)(=O)N1CCc2cc(Nc3nc(Nc4cc(C)c(OC)c(C)c4)ncc3F)ccc2C1 [VIII-10, N4-[(N-ethylsulfonyl)-1,2,3,4-tetrahydroisoquinolin-6-yl]-N2-(3,5-dimethyl-4-methoxy)phenyl-5-fluoro-2,4-pyrimidinediamine]		716
Cc1cnc(Nc2cc(C3CC3)n[nH]2)nc1Nc1ccc(CNS(=O)(=O)C2CC2)cc1 [VIII-11, 5-Methyl-N4-[4-(N-cyclopropylsulfonylamino)methylphenyl]-N2-[5-cyclopropylpyrazol-3-yl)-2,4-pyrimidinediamine]		388
O=S(=O)(NCc1ccc(Nc2nc(Nc3cc(C4CC4)n[nH]3)ncc2Cl)cc1)C1CC1 [VIII-12, 5-Chloro-N4-[4-(N-cyclopropylsulfonylamino)methylphenyl]-N2-[5-cyclopropylpyrazol-3-yl)-2,4-pyrimidinediamine]		879
(1R)—N2-(3,5-Dichloro-4-methoxyphenyl))-5-methyl-N4-[1-(methylsulfonyl)aminoindan-6-yl]-2,4-pyrimidinediamine [V-13]		19300
N2-[3,4-Dimethyl-4-(2-(4-morpholinyl)ethoxy)phenyl]-N4-[4-((N-cyclopropylamino)sulfonylamino)methylphenyl]-5-methyl-2,4-pyrimidinediamine [II-174]		127
N4-[4-(N-Cyclopropylsulfonylamino)methylphenyl]-N2-[3,4-dimethyl-4-(2-(4-morpholinyl)ethoxy)phenyl]-5-methyl-2,4-pyrimidinediamine [II-159]		47.6
N4-[4-(N-cyclopropylsulfonylamino)ethylphenyl)]-5-methyl-N2-[4-(6-methoxy-2-methyl)methoxyphenyl]-2,4-pyrimidinediamine [II-66]		467
